Patent US12281095B2, “Pesticidally active diazine-amide compounds” (SYNGENTA CROP PROTECTION AG, priority 2019, dated 2025)

Tests used:
Type in all cases: in vivo
[1] = tested on: Chilo suppressalis (Striped Rice Stemborer); assay: Example B4: Chilo suppressalis (Striped Rice Stemborer), artificial diet; settings: 144 h, application rate of 200 ppm, L2 larvae, 6 days after infestation, read-out: control in at least one of the three categories (mortality, anti-feedant or growth inhibition)
Method: Example B4: Chilo suppressalis (Striped Rice Stemborer)
24-well microtiter plates with artificial diet were treated with aqueous test solutions prepared from 10′000 ppm DMSO stock solutions by pipetting. After drying, the plates were infested with L2 larvae (6-8 per well). The samples were assessed for mortality, anti-feeding effect, and growth inhibition in comparison to untreated samples 6 days after infestation. Control of Chilo suppressalis by a test sample is given when at least one of the categories mortality, anti-feedant effect, and growth inhibition is higher than the untreated sample.

[2] = tested on: Spodoptera littoralis (Egyptian Cotton Leaf Worm); assay: Example B9: Spodoptera littoralis (Egyptian Cotton Leaf Worm), sprayed cotton leaf discs; settings: foliar, 72 h, application rate of 200 ppm, L1 larvae, 3 days after infestation, read-out: control in at least one of the three categories (mortality, anti-feedant or growth inhibition)
[3] = tested on: Plutella xylostella (Diamond Back Moth); assay: Example B5: Plutella xylostella (Diamond Back Moth), artificial diet, 24-well; settings: 192 h, application rate of 200 ppm, eggs, 8 days after infestation, read-out: control in at least one of the two categories (mortality or growth inhibition)
Method: Example B5: Plutella xylostella (Diamond Back Moth)
24-well microtiter plates with artificial diet were treated with aqueous test solutions prepared from 10′000 ppm DMSO stock solutions by pipetting. After drying, Plutella eggs were pipetted through a plastic stencil onto a gel blotting paper and the plate was closed with it. The samples were assessed for mortality and growth inhibition in comparison to untreated samples 8 days after infestation.

Row | Structure (SMILES) | percent control (mortality, anti-feedant effect or growth inhibition) at 200 ppm [1] | percent control (mortality, anti-feedant effect or growth inhibition) at 200 ppm [2] | percent control (mortality or growth inhibition) at 200 ppm [3]
1 | CC(NC(=O)c1cc(C2CC2)nc(C(F)(F)F)c1)c1nccnc1-c1ncc(OCC(F)F)cn1 (stereo not drawn) [P35, 2-cyclopropyl-N-[1-[3-[5-(2,2-difluoroethoxy)pyrimidin-2-yl]pyrazin-2-yl]ethyl]-6-(trifluoromethyl)pyridine-4-carboxamide] | ≥ 80% | ≥ 80% | ≥ 80%
2 | CC(NC(=O)c1cc(OC(F)(F)F)cc(C2(C#N)CC2)c1)c1nccnc1-c1ccc(C#N)cn1 (stereo not drawn) [P45, 3-(1-cyanocyclopropyl)-N-[1-[3-(5-cyano-2-pyridyl)pyrazin-2-yl]ethyl]-5-(trifluorometh-oxy)benzamide] | ≥ 80% | – | ≥ 80%
3 | CC(NC(=O)c1cc(C(F)(F)F)cc(S(=O)(=O)C(F)(F)F)c1)c1nccnc1-c1ccc(C#N)cn1 (stereo not drawn) [P15, N-[1-[3-(5-cyano-2-pyridyl)pyra-zin-2-yl]ethyl]-3-(trifluoromethyl)-5-(trifluoromethylsulfonyl)benza-mide] | ≥ 80% | ≥ 80% | ≥ 80%
4 | CC(NC(=O)c1cc(C(F)(F)F)cc(S(=O)(=O)C(F)(F)F)c1)c1nccnc1-c1ncc(OCC(F)(F)F)cn1 (stereo not drawn) [P12, N-[1-[3-[5-(2,2,2-trifluoroethoxy)pyrimidin-2-yl]pyrazin-2-yl]ethyl]-3-(trifluoromethyl)-5-(trifluoromethylsulfonyl)benzamide] | ≥ 80% | ≥ 80% | ≥ 80%
5 | CC(NC(=O)c1cc(C(F)(F)F)cc(C(F)(F)C2CC2)c1)c1nccnc1-c1ccc(C#N)cn1 (stereo not drawn) [P18, N-[1-[3-(5-cyano-2-pyridyl)pyra-zin-2-yl]ethyl]-3-[cyclopropyl(difluoro)methyl]-5-(trifluoromethyl)benzamide] | ≥ 80% | ≥ 80% | ≥ 80%
6 | CC(NC(=O)c1cc(C(F)(F)F)cc(C(F)(F)C2CC2)c1)c1nccnc1-c1ccc(OC(F)F)cn1 (stereo not drawn) [P5, 3-[cyclopropyl(difluoro)methyl]-N-[1-[3-[5-(difluoromethoxy)-2-pyridyl]pyrazin-2-yl]ethyl]-5-(trifluoromethyl)benzamide] | ≥ 80% | ≥ 80% | ≥ 80%
7 | CC(NC(=O)c1cc(C(F)(F)F)cc(S(=O)(=O)C(F)(F)F)c1)c1nccnc1-c1ccc(OC(F)F)cn1 (stereo not drawn) [P11, N-[1-[3-[5-(difluoromethoxy)-2-pyridyl]pyrazin-2-yl]ethyl]-3-(trifluoromethyl)-5-(trifluoromethylsulfonyl)benzamide] | ≥ 80% | ≥ 80% | ≥ 80%
8 | CC(NC(=O)c1cc(C2CC2)nc(C(F)(F)F)c1)c1nccnc1-c1ccc(C#N)cn1 (stereo not drawn) [P17, N-[1-[3-(5-cyano-2-pyridyl)pyra-zin-2-yl]ethyl]-2-cyclopropyl-6-(trifluoromethyl)pyridine-4-carboxamide] | ≥ 80% | ≥ 80% | ≥ 80%
9 | CC(NC(=O)c1cc(C(F)(F)F)cc(C(F)(F)C2CC2)c1)c1nccnc1-c1ccc(OCC(F)F)cn1 (stereo not drawn) [P30, 3-[cyclopropyl(difluoro)methyl]-N-[1-[3-[5-(2,2-difluoroethoxy)-2-pyridyl]pyrazin-2-yl]ethyl]-5-(trifluoromethyl)benzamide] | – | – | ≥ 80%
